The test deals with T1, Human PD-L1/PD-1 (Homo sapiens, UniProt Q9NZQ7).
T1 construct: TVMV protease cleavage site (C); made in house; host or cells: HEK293T cells
Kind of test: HTRF Human PD-L1/PD-1 binding assay (PD-1-Ig/PD-L1-His). Conditions: PD-L1-His 10 nM, PD-1-Ig 20 nM. The gist of the method:
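Truncated Fc-fused human PD-1 (aa 25-167) at 20 nM and His-tagged PD-L1 (aa 18-239) at 10 nM final are used, with peptides preincubated 15 min with PD-L1. Detection uses europium-cryptate anti-Ig and APC anti-His antibodies; 665/620 nm ratio.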

Setting [1] is: class symbol, read-out: HTRF Human PD-L1/PD-1 Binding Assay IC50 Range.
Where [2] appears, read: read-out: HTRF Human PD-L1/PD-1 Binding Assay IC50.

Where two headings read alike, the source gives them in different places. *1 amine or outer side, *2 acyl side, *3 side chain or, on linkers, in order; H or OH if unused. Where a SMILES comes first, the peptide text is derived from it. Bridges are numbered along the chain shown (N, C = ends). [ ]: non-standard residue; d: D form. ξ: configuration not given here. Phe(3,4,5-F3) = N[C@@H](Cc1cc(F)c(F)c(F)c1)C(=O)O; Phe(3,4-F2) = N[C@@H](Cc1ccc(F)c(F)c1)C(=O)O; NMePhe(4-F) = CN[C@@H](Cc1ccc(F)cc1)C(=O)O; X4 = CC1(C)CC[C@H](C(=O)[*:2])N1[*:1]; d(cisHyp) = O=C(O)[C@H]1C[C@@H](O)CN1; Bta = N[C@@H](Cc1csc2ccccc12)C(=O)O; Lys(Me2) = CN(C)CCCC[C@H](N)C(=O)O; Hyp = O=C(O)[C@@H]1C[C@@H](O)CN1; NMeF = CN[C@@H](Cc1ccccc1)C(=O)O; X1 = O=C([C@H]1COCCN1[*:1])[*:2]; NMeNle = CCCC[C@H](NC)C(=O)O; dNle = CCCC[C@@H](N)C(=O)O; Pip = O=C(O)[C@@H]1CCCCN1; dPip = O=C(O)[C@H]1CCCCN1; hSer = N[C@@H](CCO)C(=O)O; NMeA = CN[C@@H](C)C(=O)O; Orn = NCCC[C@H](N)C(=O)O; Dap = NC[C@H](N)C(=O)O; ξC = NC(CS)C(=O)O; Sar = CNCC(=O)O

T1 sequence (Q9NZQ7 with tags, fused parts or gaps): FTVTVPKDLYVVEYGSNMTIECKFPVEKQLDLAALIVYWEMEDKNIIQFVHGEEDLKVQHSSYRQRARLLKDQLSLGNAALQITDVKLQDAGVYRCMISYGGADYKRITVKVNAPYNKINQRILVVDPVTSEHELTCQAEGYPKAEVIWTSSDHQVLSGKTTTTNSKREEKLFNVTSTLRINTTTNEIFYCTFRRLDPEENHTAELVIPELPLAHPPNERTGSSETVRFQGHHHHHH

As to `CCCC[C@H]1C(=O)N(C)[C@@H](CCCC)C(=O)N[C@@H](CCCCN(C)C)C(=O)N[C@H](C(=O)NCC(N)=O)CSCC(=O)N[C@@H](Cc2ccc(O)cc2)C(=O)N2CCCC[C@H]2C(=O)N[C@@H](CC(=O)O)C(=O)N2CCC[C@H]2C(=O)N[C@@H](CN)C(=O)N[C@@H](CCC(=O)O)C(=O)N2C[C@H](O)C[C@H]2C(=O)N[C@@H](Cc2c[nH]c3ccccc23)C(=O)N[C@@H](CO)C(=O)N[C@@H](Cc2c[nH]c3ccccc23)C(=O)N1C` [Example 1306] ({CH2CO}-Y[Pip]DP[Dap]E[Hyp]WSW[NMeNle][NMeNle][Lys(Me2)]CG-NH2; thioether N-14), the IC50 under setting [1] fell in the range of 0.01 to 0.0999 µM.

As to `CCCC[C@H]1C(=O)N2CCOC[C@@H]2C(=O)N[C@@H](CC(=O)O)C(=O)N[C@@H](C(C)C)C(=O)N(C)[C@@H](Cc2ccccc2)C(=O)N[C@@H](CCC(=O)O)C(=O)N2CCC[C@@H]2C(=O)N[C@@H](Cc2c[nH]c3ccccc23)C(=O)N[C@@H](Cc2ccc(O)cc2)C(=O)N[C@@H](CCOC)C(=O)N[C@H](C(=O)NCC(N)=O)CSCC(=O)N[C@@H](Cc2cc(F)c(F)c(F)c2)C(=O)N(C)[C@@H](Cc2ccccc2)C(=O)N1C` [Example 10192] ({CH2CO}-[Phe(3,4,5-F3)][NMeF][NMeNle][X1]DV[NMeF]E[dP]WY[hSer](Me)CG-NH2; thioether N-13), under setting [1], the IC50 was 0.01 to 0.0999 µM. Regarding `CCCC[C@H]1NC(=O)[C@H](Cc2csc3ccccc23)NC(=O)[C@H](CO)NC(=O)[C@H](Cc2c[nH]c3ccccc23)NC(=O)[C@@H]2C[C@@H](O)CN2C(=O)[C@H](CC(C)C)NC(=O)[C@H](Cc2cnc[nH]2)NC(=O)[C@@H]2CCCN2C(=O)[C@H](CC(N)=O)NC(=O)[C@H](C)N(C)C(=O)[C@H](Cc2ccc(O)cc2)NC(=O)CSCC(C(=O)NCC(N)=O)NC(=O)[C@H](CCCNC(=N)N)NC(=O)[C@H](CCCC)N(C)C1=O` (some centres unmarked) [Example 10123] ({CH2CO}-Y[NMeA]NPHL[Hyp]WS[Bta][dNle][NMeNle]R[ξC]G-NH2; thioether N-14), the IC50 under setting [1] was in the range of 0.1 to 0.99 µM. As to `CCCC[C@H]1C(=O)N2C[C@H](O)C[C@@H]2C(=O)N[C@@H](CC(=O)O)C(=O)N[C@@H](C(C)C)C(=O)N(C)[C@@H](Cc2ccccc2)C(=O)N[C@@H](CCCCN)C(=O)N2C[C@H](O)C[C@@H]2C(=O)N[C@@H](Cc2c[nH]c3ccccc23)C(=O)N[C@@H](Cc2ccc(O)cc2)C(=O)N[C@@H](CCCN)C(=O)N[C@H](C(=O)NCC(N)=O)CSCC(=O)N[C@@H](Cc2ccc(F)c(F)c2)C(=O)N(C)[C@@H](Cc2ccccc2)C(=O)N1C` [Example 9306] ({CH2CO}-[Phe(3,4-F2)][NMeF][NMeNle][d(cisHyp)]DV[NMeF]K[d(cisHyp)]WY[Orn]CG-NH2; thioether N-13), under setting [1], the IC50 was 0.001 to 0.0099 µM. Same read-out and setting: with `CCCC[C@H]1C(=O)N2CCC[C@@H]2C(=O)N[C@@H](CN)C(=O)N[C@@H](C(C)C)C(=O)N(C)[C@@H](Cc2ccccc2)C(=O)N[C@@H](CC(=O)O)C(=O)N2CCCC[C@@H]2C(=O)N[C@@H](Cc2c[nH]c3ccccc23)C(=O)N[C@@H](Cc2ccc(O)cc2)C(=O)N[C@@H](CC(C)C)C(=O)N[C@H](C(=O)NCC(N)=O)CSCC(=O)N[C@@H](Cc2cc(F)c(F)c(F)c2)C(=O)N(C)[C@@H](Cc2ccc(F)cc2)C(=O)N1C` [Example 10582] ({CH2CO}-[Phe(3,4,5-F3)][NMePhe(4-F)][NMeNle][dP][Dap]V[NMeF]D[dPip]WYLCG-NH2; thioether N-13) the figure was 0.001 to 0.0099 µM.

With `CCCC[C@H]1C(=O)N(C)[C@@H](CCCC)C(=O)N[C@@H](CC(C)C)C(=O)N[C@H](C(=O)NCC(N)=O)CSCC(=O)N[C@@H](Cc2ccc(O)cc2)C(=O)N(C)[C@@H](C)C(=O)N[C@@H](CC(N)=O)C(=O)N2CCC[C@H]2C(=O)N(C)CC(=O)N[C@@H](CCC(N)=O)C(=O)N2C[C@H](O)C[C@H]2C(=O)N[C@@H](Cc2c[nH]c3ccccc23)C(=O)N[C@@H](CO)C(=O)N[C@@H](Cc2c[nH]c3ccccc23)C(=O)N1C` [Example 5262] ({CH2CO}-Y[NMeA]NP[Sar]Q[Hyp]WSW[NMeNle][NMeNle]LCG-NH2; thioether N-14), under setting [2], the IC50 is 0.101 µM. For `CCCC[C@H]1C(=O)N2C[C@H](O)C[C@@H]2C(=O)N[C@@H](CC(=O)O)C(=O)N[C@@H](C(C)C)C(=O)N(C)[C@@H](Cc2ccccc2)C(=O)N[C@@H](CCCN)C(=O)N2CCC[C@@H]2C(=O)N[C@@H](Cc2c[nH]c3ccccc23)C(=O)N[C@@H](Cc2ccc(O)cc2)C(=O)N[C@@H](CCO)C(=O)N[C@H](C(=O)NCC(N)=O)CSCC(=O)N[C@@H](Cc2cc(F)c(F)c(F)c2)C(=O)N(C)[C@@H](Cc2ccccc2)C(=O)N1C` [Example 10152] ({CH2CO}-[Phe(3,4,5-F3)][NMeF][NMeNle][d(cisHyp)]DV[NMeF][Orn][dP]WY[hSer]CG-NH2; thioether N-13), under setting [1], the IC50 lay in the range of 0.001 to 0.0099 µM.

For the molecule `CCCC[C@H]1C(=O)N(C)CC(=O)N[C@@H](CC(=O)O)C(=O)N[C@@H](C(C)C)C(=O)N(C)[C@@H](Cc2ccccc2)C(=O)N[C@@H](Cc2ccc(O)cc2)C(=O)N2[C@H](CCC2(C)C)C(=O)N[C@@H](Cc2c[nH]c3ccccc23)C(=O)N[C@@H](Cc2ccc(O)cc2)C(=O)N[C@@H](CC(C)C)C(=O)N[C@H](C(=O)NCC(N)=O)CSCC(=O)N[C@@H](Cc2ccccc2)C(=O)N(C)[C@@H](Cc2ccccc2)C(=O)N1C` [Example 3210] ({CH2CO}-F[NMeF][NMeNle][Sar]DV[NMeF]Y[X4]WYLCG-NH2; thioether N-13), the IC50 under setting [2] was found to be 1 µM.

Regarding `CCCC[C@H]1C(=O)N(C)[C@@H](CCCC)C(=O)N[C@@H](CCC(=O)O)C(=O)NC(C(=O)NCC(N)=O)CSCC(=O)N[C@@H](Cc2ccc(O)cc2)C(=O)N(C)[C@@H](C)C(=O)N[C@@H](CC(N)=O)C(=O)N2CCC[C@H]2C(=O)N[C@@H](Cc2c[nH]cn2)C(=O)N[C@@H](CC(N)=O)C(=O)N2CCC[C@H]2C(=O)N[C@@H](Cc2c[nH]c3ccccc23)C(=O)N[C@@H](CN)C(=O)N[C@@H](Cc2c[nH]c3ccccc23)C(=O)N1C` (some centres unmarked) [Example 9178] ({CH2CO}-Y[NMeA]NPHNPW[Dap]W[NMeNle][NMeNle]E[ξC]G-NH2; thioether N-14), under setting [1], the IC50 was in the range of 0.1 to 0.99 µM. For the molecule `CCCC[C@H]1C(=O)N2CCC[C@@H]2C(=O)N[C@@H](CC(=O)O)C(=O)N[C@@H](C(C)C)C(=O)N(C)[C@@H](Cc2ccccc2)C(=O)N[C@@H](CCCN)C(=O)N2C[C@H](O)C[C@@H]2C(=O)N[C@@H](Cc2c[nH]c3ccccc23)C(=O)N[C@@H](Cc2ccc(O)cc2)C(=O)N[C@@H](CCOC)C(=O)N[C@H](C(=O)NCC(N)=O)CSCC(=O)N[C@@H](Cc2cc(F)c(F)c(F)c2)C(=O)N(C)[C@@H](Cc2ccccc2)C(=O)N1C` [Example 10182] ({CH2CO}-[Phe(3,4,5-F3)][NMeF][NMeNle][dP]DV[NMeF][Orn][d(cisHyp)]WY[hSer](Me)CG-NH2; thioether N-13), the IC50 under setting [1] is 0.001 to 0.0099 µM.

Consider `CCCC[C@H]1C(=O)N2C[C@H](O)C[C@@H]2C(=O)N[C@@H](CC(=O)O)C(=O)N[C@@H](C(C)C)C(=O)N(C)[C@@H](Cc2ccccc2)C(=O)N[C@@H](CC(N)=O)C(=O)N2C[C@H](O)C[C@@H]2C(=O)N[C@@H](Cc2c[nH]c3ccccc23)C(=O)N[C@@H](Cc2ccc(O)cc2)C(=O)N[C@@H](CN)C(=O)N[C@H](C(=O)NCC(N)=O)CSCC(=O)N[C@@H](Cc2cc(F)c(F)c(F)c2)C(=O)N(C)[C@@H](Cc2ccccc2)C(=O)N1C` [Example 9365] ({CH2CO}-[Phe(3,4,5-F3)][NMeF][NMeNle][d(cisHyp)]DV[NMeF]N[d(cisHyp)]WY[Dap]CG-NH2; thioether N-13), for which the IC50 under setting [1] was in the range of 0.01 to 0.0999 µM.

Values taken from patent publication US10538555B2, “Macrocyclic inhibitors of the PD-1/PD-L1 and CD80(B7-1)/PD-L1 protein/protein interactions” (BRISTOL-MYERS SQUIBB COMPANY, priority 2014, dated 2020).
